Data published in paper PMC3174134, “Lucanthone and Its Derivative Hycanthone Inhibit Apurinic Endonuclease-1 (APE1) by Direct Protein Binding” (PLoS ONE, 2011).
Like-named read-outs stand apart in the source and are kept apart here.

Assays:
[1] = target: T1, APE1 (Homo sapiens, UniProt P27695); test: APE1 endonuclease activity: incision of depurinated plasmid (pUC18) DNA; format: biochemical; set-up: the full length APE1 protein was successfully expressed and purified; made in house; host or cells: E. coli BL21/DE3
T1 sequence (P27695 whole entry): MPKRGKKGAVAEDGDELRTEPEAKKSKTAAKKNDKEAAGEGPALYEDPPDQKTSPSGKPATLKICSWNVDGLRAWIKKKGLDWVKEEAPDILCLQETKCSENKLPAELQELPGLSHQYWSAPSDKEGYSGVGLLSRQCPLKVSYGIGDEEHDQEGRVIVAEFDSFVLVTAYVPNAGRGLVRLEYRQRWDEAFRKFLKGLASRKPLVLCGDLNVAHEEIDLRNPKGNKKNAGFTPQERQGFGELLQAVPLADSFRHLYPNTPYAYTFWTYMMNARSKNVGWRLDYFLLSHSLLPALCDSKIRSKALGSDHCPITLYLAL
Procedure: APE1 endonuclease activity was determined using an assay that measures the conversion of plasmid DNA from supercoiled to relaxed form by incision at an abasic site [35]–[36]. Briefly, the substrate used was 200 ng of depurinated pUC18 DNA in 10 µl of 1× APE1 buffer containing 50 mM Hepes, pH 7.4, 150 mM KCl, 5 mM MgCl2 and 100 µg/ml of BSA in presence of different concentrations of the cell extract (1 µl containing 0–55 ng of total protein). Similar reactions mixtures were set up with untreated pUC18, which served as the internal control. This reaction mixture was incubated at 37°C for 15 min, and the reaction was stopped by addition of alkaline stop mix (0.25% bromocresol green in 0.25N NaOH, 50% glycerol) and left at room temperature for 10–15 min. Then the products were resolved on a 0.8% agarose gel in 40 mM Tris-acetate and 2 mM EDTA for 2 h. The gel was stained with ethidium bromide to visualize supercoiled and relaxed plasmid DNA and imaged with a digital imaging system and the area under the supercoiled and relaxed form was determined. Final calculations were done in femtomoles (fmol) of abasic sites incised/min/mg protein with normalization done using Pyruvate Kinase units (PKU) present in these extracts. Poisson distribution calculations were done on supercoiled and relaxed bands to estimate incisions per plasmid molecule and the resulting depurinated pUC18 had 1 AP site per molecule. The endonuclease activity inhibition by lucanthone was analyzed using standard Lineweaver-Burke Plot to determine if the inhibition was competitive or non-competitive.

[2] = target: T1, APE1; test: Far UV circular dichroism of APE1 with drug (CDSSTR/DICHROWEB); set-up: the full length APE1 protein was successfully expressed and purified; made in house; host or cells: E. coli BL21/DE3; Helix 1 / Helix 2 / Strand 1 / Strand 2 / Turns / Unordered: unit not given here; conditions: APE1 plus drug (1 mg/ml, 50 µl), 37°C, 60 min
Procedure: APE1 and its mutant proteins (10 mg/ml), 50 µl (500 µg) (14 µM) in APE1 buffer (50 mM HEPES, pH 7.4, 150 mM KCl, 5 mM MgCl2), were mixed with lucanthone/hycanthone (1 mg/ml), 50 µl (50 µg), 140 µM and incubated at 37°C for 60 min and far UV-CD spectra were recorded at NSLS U11 beam line at BNL. Lucanthone and hycanthone were also scanned as drug controls. The scanning parameters used were a 0.001 cm path length quartz cell, scanning wavelengths from 260 to 170 nm, bandwidth of 0.5 nm, digital integration time of 1 s, time constant of 200 ms, step size of 1 nm, and sensitivity of 200 µV. The data were corrected with blank subtraction from APE1 buffer alone. The secondary structure for APE1 with or without lucanthone or hycanthone was analyzed using CDSSTR program DICHROWEB [38].

[3] = target: T1, APE1; test: MALDI-TOF analysis of APE1 degradation; set-up: the full length APE1 protein was successfully expressed and purified; made in house; host or cells: E. coli BL21/DE3; conditions: 100 µM drug; for APE1 protein fragments by MALDI-TOF / Full length 35.5 kDa APE1 peak by MALDI-TOF: 37°C; for APE1 protein fragments by MALDI-TOF: 2 or 24 h; for Full length 35.5 kDa APE1 peak by MALDI-TOF: 24 h
Procedure: 100 nM of APE1 protein was treated with 100 µM of lucanthone, hycanthone or CRT at 37°C for 2 h and 24 h and analyzed on sinipinic acid matrix on a Voyager-DE STR (Applied Biosystems) MALDI-TOF instrument at the Proteomics facility at SUNYSB in a linear mode.

[4] = target: T1, APE1; test: EMSA (gel mobility shift) of APE1 DNA binding capacity with THF-containing substrate; format: biochemical; set-up: the full length APE1 protein was successfully expressed and purified; made in house; host or cells: E. coli BL21/DE3; conditions: 100 µM drug preincubated with APE1 30 min
Procedure: In order to elucidate whether lucanthone and hycanthone could inhibit APE1 by interfering with APE1-DNA interaction through their DNA intercalation ability, we measured the DNA binding capacity of APE1 in the presence of lucanthone and hycanthone by incubating different concentrations of APE1 (10 nM and 25 nM) with 100 µM of lucanthone and/or hycanthone for 30 min and subsequently incubating the mixture with 25 nM of THF-containing substrate at 25°C in binding buffer (50 mM HEPES, pH 7.5, 150 mM NaCl, 0.1 mg/ml BSA, 0.5 mM EDTA and 1 mM DTT) for 30 min. THF stands for tetrahydrofuran that represents a synthetic abasic site. This is commonly inserted into an oligonucleotide substrate for measuring APE1 cleavage activity. 5′-incision of THF by APE1 results in a residue that mimics reduced 5′-deoxyribose phosphate group. Since THF group lacks the 1′-OH group, it blocks β-elimination that is required for mediating any dRP lyase activity. The sequence of the APE1 substrate with THF group is 5′[…]-3′ as described by Liu et al.
APE1-DNA complex was then separated from unbound substrate DNA by electrophoresis under native conditions in a 1% agarose-0.1% acrylamide gel at 4°C for 1.5 h as described previously [50]–[51].

| Compound | IC50 ([1]; read-out: IC50 for inhibition of APE1 incision of depurinated plasmid DNA) | Av. helix length per segment [2] | Av. strand length per segment [2] | Helix 1 [2] | Helix 2 [2] | Strand 1 [2] | Strand 2 [2] | Turns [2] | Unordered [2] | APE1 protein fragments by MALDI-TOF [3] | Full length 35.5 kDa APE1 peak by MALDI-TOF [3] | Inhibition of DNA binding capacity of APE1 [4] | IC50 [1] | Kinetics (mode) of inhibition, Lineweaver-Burke plot [1] | Inhibition of endonuclease activity of wild type APE1 ([1]; 100 µM lucanthone, 2 h, 37°C) | AP endonuclease activity of recombinant APE1 ([1]; 10-50 µM, 37°C, 2 h) | Time at which APE1 degradation is seen by MALDI [3] |
| --- | --- | --- | --- | --- | --- | --- | --- | --- | --- | --- | --- | --- | --- | --- | --- | --- | --- |
| CCN(CC)CCNc1ccc(CO)c2sc3ccccc3c(=O)c12 [hycanthone] | 80 nM | 4.020 | 5.799 | 0.00 | 0.069 | 0.267 | 0.141 | 0.124 | 0.399 | cleavage of APE1 as evidenced mainly by 10, 11 and 17 kDa peaks | almost completely degraded | not at all | – | – | – | – | – |
| CCN(CC)CCNc1ccc(C)c2sc3ccccc3c(=O)c12 [lucanthone, 1-[2-diethylaminoethylamino]-4-methylthioxanthen-9-one] | – | 4.053 | 5.762 | 0.00 | 0.071 | 0.262 | 0.140 | 0.125 | 0.403 | steady degradation of APE1 into smaller fragments | almost completely degraded | marginally inhibited | 5000 nM | non-competitive inhibitor | corresponding inhibition of the endonuclease activity | corresponding decrease in AP endonuclease activity | ≤ 2 h |
